As usually defined, the pKd is the Kd on a negative log10 scale, so that one unit is a factor of ten.

This note sets out measurements from patent US20260116920A1, “HUMAN TRANSFERRIN RECEPTOR BINDING PEPTIDE” (PEPTIDREAM INC., priority 2021, published 2026).

pKd: −log10 of the molar value. Positions of bridges follow the written chain, without caps; N, C: chain ends. Non-standard residues stand in square brackets, D forms with d. Residues, ends and D or L forms follow the SMILES beside them. *: point of attachment. Trp(1-CH2COOH) = N[C@@H](Cc1cn(CC(=O)O)c2ccccc12)C(=O)O; Phe(3-COOH) = N[C@@H](Cc1cccc(C(=O)O)c1)C(=O)O; NH(CH2CH2O)8Me = COCCOCCOCCOCCOCCOCCOCCOCCN*; NMePhe(3-Cl) = CN[C@@H](Cc1cccc(Cl)c1)C(=O)O; 3Pal(6-NH2) = Nc1ccc(C[C@H](N)C(=O)O)cn1; NMeY = CN[C@@H](Cc1ccc(O)cc1)C(=O)O; 3Pal = N[C@@H](Cc1cccnc1)C(=O)O; 4Pal = N[C@@H](Cc1ccncc1)C(=O)O; PEG4 = NCCOCCOCCOCCOCCC(=O)O; Carboxymethyl = O=C(O)C*

The target of this test is T1, human transferrin receptor (hTfR) (Homo sapiens, UniProt P02786).
T1 construct: made in house
T1 sequence (P02786 89-760 limits assumed): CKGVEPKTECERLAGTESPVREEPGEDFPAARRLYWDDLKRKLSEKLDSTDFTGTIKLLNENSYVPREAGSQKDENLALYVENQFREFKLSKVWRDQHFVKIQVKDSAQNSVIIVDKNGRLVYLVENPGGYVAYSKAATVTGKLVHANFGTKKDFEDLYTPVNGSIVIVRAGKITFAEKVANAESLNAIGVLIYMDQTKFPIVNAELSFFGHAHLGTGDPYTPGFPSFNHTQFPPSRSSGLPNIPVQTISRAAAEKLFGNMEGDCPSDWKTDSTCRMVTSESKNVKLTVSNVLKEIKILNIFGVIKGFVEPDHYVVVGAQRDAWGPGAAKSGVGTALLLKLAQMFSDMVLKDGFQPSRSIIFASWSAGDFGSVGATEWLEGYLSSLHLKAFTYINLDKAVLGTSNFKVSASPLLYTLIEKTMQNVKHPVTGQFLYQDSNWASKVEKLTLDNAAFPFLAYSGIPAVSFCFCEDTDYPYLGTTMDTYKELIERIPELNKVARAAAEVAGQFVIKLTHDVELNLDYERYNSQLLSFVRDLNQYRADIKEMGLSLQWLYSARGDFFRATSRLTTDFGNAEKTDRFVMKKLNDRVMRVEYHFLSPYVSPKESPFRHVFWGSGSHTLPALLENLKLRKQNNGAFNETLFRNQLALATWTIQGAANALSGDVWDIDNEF
Put plainly: Evaluation of molecular interaction between transferrin receptor (hTfR) and peptide using surface plasmon resonance (SPR). Format: binding. The settings on record: surface plasmon resonance, binding to hTfR; KD class symbol; read-out: SPR (KD value). A digest of the protocol:
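Recombinant hTfR dimer (0.5 μM) immobilized on Ni-loaded NTA chip via EDC/NHS, ethanolamine-capped. Peptides at 5–100 nM in HEPES pH 8.0 buffer with 150 mM NaCl, 0.05% Tween 20, 0.1% BSA, 1.0% DMSO, flowed by single-cycle kinetics; KD from least-squares fit of sensorgrams.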
As for `CC[C@H](C)[C@@H]1NC(=O)[C@H](Cc2ccc(OCC(=O)O)cc2)NC(=O)[C@H](Cc2ccc(N)nc2)NC(=O)[C@H](CC(N)=O)NC(=O)[C@H](Cc2cn(CC(=O)O)c3ccccc23)NC(=O)[C@H](C(C)C)NC(=O)[C@H](Cc2cccc(Cl)c2)N(C)C(=O)[C@H](C(C)C)NC(=O)[C@H](C)NC(=O)CSC[C@@H](C(=O)NCCOCCOCCOCCOCCC(N)=O)NC(=O)[C@H](Cc2ccc(O)cc2)N(C)C(=O)[C@H](Cc2ccncc2)NC(=O)[C@H](CCC(=O)NCCOCCOCCOCCOCCOCCOCCOCCOC)NC(=O)[C@H](CCCNC(=N)N)NC(=O)[C@H]([C@@H](C)CC)NC1=O` [compound 88] ({CH2CO}-AV[NMePhe(3-Cl)]V[Trp(1-CH2COOH)]N[3Pal(6-NH2)]Y(Carboxymethyl)IIRE(NH(CH2CH2O)8Me)[4Pal][NMeY]C[PEG4]-NH2; thioether N-15), the pKd was 6.00 to 7.00.
In the case of `CC[C@H](C)[C@@H]1NC(=O)[C@H](Cc2ccc(OCC(=O)O)cc2)NC(=O)[C@H](Cc2ccc(O)cc2)NC(=O)[C@H](CC(N)=O)NC(=O)[C@H](Cc2c[nH]c3ccccc23)NC(=O)[C@H](C(C)C)NC(=O)[C@H](Cc2cccc(Cl)c2)N(C)C(=O)[C@H](C(C)C)NC(=O)[C@H](C)NC(=O)CSC[C@@H](C(=O)NCCOCCOCCOCCOCCC(N)=O)NC(=O)[C@H](Cc2ccc(O)cc2)N(C)C(=O)[C@H](Cc2ccccc2)NC(=O)[C@H](CCC(=O)NCCOCCOCCOCCOCCOCCOCCOCCOC)NC(=O)[C@H](CCCNC(=N)N)NC(=O)[C@H]([C@@H](C)CC)NC1=O` [compound 89] it was 7.00 to 9.00.
As to `CC[C@H](C)[C@@H]1NC(=O)[C@H](Cc2ccc(OC)cc2)NC(=O)[C@H](Cc2ccc(O)cc2)NC(=O)[C@H](CC(N)=O)NC(=O)[C@H](Cc2c[nH]c3ccccc23)NC(=O)[C@H](C(C)C)NC(=O)[C@H](Cc2cccc(Cl)c2)N(C)C(=O)[C@H](C(C)C)NC(=O)[C@H](C)NC(=O)CSC[C@@H](C(=O)NCCOCCOCCOCCOCCC(N)=O)NC(=O)[C@H](Cc2ccc(O)cc2)N(C)C(=O)[C@H](Cc2cccc(C(=O)O)c2)NC(=O)[C@H](CCC(=O)NCCOCCOCCOCCOCCOCCOCCOCCOC)NC(=O)[C@H](CCCNC(=N)N)NC(=O)[C@H]([C@@H](C)CC)NC1=O` [compound 90] ({CH2CO}-AV[NMePhe(3-Cl)]VWNYY(Me)IIRE(NH(CH2CH2O)8Me)[Phe(3-COOH)][NMeY]C[PEG4]-NH2; thioether N-15), the pKd is 7.00 to 9.00.
Consider `CC[C@H](C)[C@@H]1NC(=O)[C@H](Cc2ccc(OCC(=O)O)cc2)NC(=O)[C@H](Cc2ccc(N)nc2)NC(=O)[C@H](CC(N)=O)NC(=O)[C@H](Cc2c[nH]c3ccccc23)NC(=O)[C@H](C(C)C)NC(=O)[C@H](Cc2cccc(Cl)c2)N(C)C(=O)[C@H](C(C)C)NC(=O)[C@H](C)NC(=O)CSC[C@@H](C(=O)NCCOCCOCCOCCOCCC(N)=O)NC(=O)[C@H](Cc2ccc(O)cc2)N(C)C(=O)[C@H](Cc2cccc(C(=O)O)c2)NC(=O)[C@H](CCCNC(=N)N)NC(=O)[C@H](CCCNC(=N)N)NC(=O)[C@H]([C@@H](C)CC)NC1=O` [compound 91] ({CH2CO}-AV[NMePhe(3-Cl)]VWN[3Pal(6-NH2)]Y(Carboxymethyl)IIRR[Phe(3-COOH)][NMeY]C[PEG4]-NH2; thioether N-15), for which the pKd was 7.00 to 9.00.
For `CC[C@H](C)[C@@H]1NC(=O)[C@H](Cc2ccc(OCC(=O)O)cc2)NC(=O)[C@H](Cc2ccc(N)nc2)NC(=O)[C@H](CC(N)=O)NC(=O)[C@H](Cc2c[nH]c3ccccc23)NC(=O)[C@H](C(C)C)NC(=O)[C@H](Cc2cccc(Cl)c2)N(C)C(=O)[C@H](C(C)C)NC(=O)[C@H](C)NC(=O)CSC[C@@H](C(=O)NCCOCCOCCOCCOCCC(N)=O)NC(=O)[C@H](Cc2ccc(O)cc2)N(C)C(=O)[C@H](Cc2ccncc2)NC(=O)[C@H](CCCNC(=N)N)NC(=O)[C@H](CCCNC(=N)N)NC(=O)[C@H]([C@@H](C)CC)NC1=O` [compound 92], the pKd is 7.00 to 9.00.
As for `CC[C@H](C)[C@@H]1NC(=O)[C@H](Cc2cccnc2)NC(=O)[C@H](Cc2ccc(O)cc2)NC(=O)[C@H](CC(N)=O)NC(=O)[C@H](Cc2c[nH]c3ccccc23)NC(=O)[C@H](C(C)C)NC(=O)[C@H](Cc2cccc(Cl)c2)N(C)C(=O)[C@H](C(C)C)NC(=O)[C@H](C)NC(=O)CSC[C@@H](C(=O)NCCOCCOCCOCCOCCC(N)=O)NC(=O)[C@H](Cc2ccc(O)cc2)N(C)C(=O)[C@H](Cc2cccc(C(=O)O)c2)NC(=O)[C@H](CCC(=O)NCCOCCOCCOCCOCCOCCOCCOCCOC)NC(=O)[C@H](CCCNC(=N)N)NC(=O)[C@H]([C@@H](C)CC)NC1=O` [compound 93] ({CH2CO}-AV[NMePhe(3-Cl)]VWNY[3Pal]IIRE(NH(CH2CH2O)8Me)[Phe(3-COOH)][NMeY]C[PEG4]-NH2; thioether N-15), the pKd is 7.00 to 9.00.
In the case of `CC[C@H](C)[C@@H]1NC(=O)[C@H](Cc2cccnc2)NC(=O)[C@H](Cc2ccc(O)cc2)NC(=O)[C@H](CC(N)=O)NC(=O)[C@H](Cc2c[nH]c3ccccc23)NC(=O)[C@H](C(C)C)NC(=O)[C@H](Cc2cccc(Cl)c2)N(C)C(=O)[C@H](C(C)C)NC(=O)[C@H](C)NC(=O)CSC[C@@H](C(=O)NCCOCCOCCOCCOCCC(N)=O)NC(=O)[C@H](Cc2ccc(O)cc2)N(C)C(=O)[C@H](Cc2ccncc2)NC(=O)[C@H](CCC(=O)NCCOCCOCCOCCOCCOCCOCCOCCOC)NC(=O)[C@H](CCCNC(=N)N)NC(=O)[C@H]([C@@H](C)CC)NC1=O` [compound 94] ({CH2CO}-AV[NMePhe(3-Cl)]VWNY[3Pal]IIRE(NH(CH2CH2O)8Me)[4Pal][NMeY]C[PEG4]-NH2; thioether N-15) it was 7.00 to 9.00.
The figure for `CC[C@H](C)[C@@H]1NC(=O)[C@H](Cc2ccc(OCC(=O)O)cc2)NC(=O)[C@H](Cc2ccc(O)cc2)NC(=O)[C@H](CC(N)=O)NC(=O)[C@H](Cc2c[nH]c3ccccc23)NC(=O)[C@H](C(C)C)NC(=O)[C@H](Cc2cccc(Cl)c2)N(C)C(=O)[C@H](C(C)C)NC(=O)[C@H](C)NC(=O)CSC[C@@H](C(=O)NCCOCCOCCOCCOCCC(N)=O)NC(=O)[C@H](Cc2ccc(O)cc2)N(C)C(=O)[C@H](Cc2cccc(C(=O)O)c2)NC(=O)[C@H](CCC(=O)NCCOCCOCCOCCOCCOCCOCCOCCOC)NC(=O)[C@H](CCCNC(=N)N)NC(=O)[C@H]([C@@H](C)CC)NC1=O` [compound 95] ({CH2CO}-AV[NMePhe(3-Cl)]VWNYY(Carboxymethyl)IIRE(NH(CH2CH2O)8Me)[Phe(3-COOH)][NMeY]C[PEG4]-NH2; thioether N-15) is 7.00 to 9.00.
As to `CC[C@H](C)[C@@H]1NC(=O)[C@H](Cc2ccc(OCC(=O)O)cc2)NC(=O)[C@H](Cc2ccc(O)cc2)NC(=O)[C@H](CC(N)=O)NC(=O)[C@H](Cc2c[nH]c3ccccc23)NC(=O)[C@H](C(C)C)NC(=O)[C@H](Cc2cccc(Cl)c2)N(C)C(=O)[C@H](C(C)C)NC(=O)[C@H](C)NC(=O)CSC[C@@H](C(=O)NCCOCCOCCOCCOCCC(N)=O)NC(=O)[C@H](Cc2ccc(O)cc2)N(C)C(=O)[C@H](Cc2ccncc2)NC(=O)[C@H](CCC(=O)NCCOCCOCCOCCOCCOCCOCCOCCOC)NC(=O)[C@H](CCCNC(=N)N)NC(=O)[C@H]([C@@H](C)CC)NC1=O` [compound 96] ({CH2CO}-AV[NMePhe(3-Cl)]VWNYY(Carboxymethyl)IIRE(NH(CH2CH2O)8Me)[4Pal][NMeY]C[PEG4]-NH2; thioether N-15), the pKd is 7.00 to 9.00.
Consider `CC[C@H](C)[C@@H]1NC(=O)[C@H](Cc2cccnc2)NC(=O)[C@H](Cc2ccc(N)nc2)NC(=O)[C@H](CC(N)=O)NC(=O)[C@H](Cc2c[nH]c3ccccc23)NC(=O)[C@H](C(C)C)NC(=O)[C@H](Cc2cccc(Cl)c2)N(C)C(=O)[C@H](C(C)C)NC(=O)[C@H](C)NC(=O)CSC[C@@H](C(=O)NCCOCCOCCOCCOCCC(N)=O)NC(=O)[C@H](Cc2ccc(O)cc2)N(C)C(=O)[C@H](Cc2cccc(C(=O)O)c2)NC(=O)[C@H](CCC(=O)NCCOCCOCCOCCOCCOCCOCCOCCOC)NC(=O)[C@H](CCCNC(=N)N)NC(=O)[C@H]([C@@H](C)CC)NC1=O` [compound 97] ({CH2CO}-AV[NMePhe(3-Cl)]VWN[3Pal(6-NH2)][3Pal]IIRE(NH(CH2CH2O)8Me)[Phe(3-COOH)][NMeY]C[PEG4]-NH2; thioether N-15), for which the pKd is 7.00 to 9.00.
In the case of `CC[C@H](C)[C@@H]1NC(=O)[C@H](Cc2cccnc2)NC(=O)[C@H](Cc2ccc(N)nc2)NC(=O)[C@H](CC(N)=O)NC(=O)[C@H](Cc2c[nH]c3ccccc23)NC(=O)[C@H](C(C)C)NC(=O)[C@H](Cc2cccc(Cl)c2)N(C)C(=O)[C@H](C(C)C)NC(=O)[C@H](C)NC(=O)CSC[C@@H](C(=O)NCCOCCOCCOCCOCCC(N)=O)NC(=O)[C@H](Cc2ccc(O)cc2)N(C)C(=O)[C@H](Cc2ccncc2)NC(=O)[C@H](CCC(=O)NCCOCCOCCOCCOCCOCCOCCOCCOC)NC(=O)[C@H](CCCNC(=N)N)NC(=O)[C@H]([C@@H](C)CC)NC1=O` [compound 98] ({CH2CO}-AV[NMePhe(3-Cl)]VWN[3Pal(6-NH2)][3Pal]IIRE(NH(CH2CH2O)8Me)[4Pal][NMeY]C[PEG4]-NH2; thioether N-15) it was 7.00 to 9.00; in that of `CC[C@H](C)[C@@H]1NC(=O)[C@H](Cc2ccc(OCC(=O)O)cc2)NC(=O)[C@H](Cc2ccc(N)nc2)NC(=O)[C@H](CC(N)=O)NC(=O)[C@H](Cc2c[nH]c3ccccc23)NC(=O)[C@H](C(C)C)NC(=O)[C@H](Cc2cccc(Cl)c2)N(C)C(=O)[C@H](C(C)C)NC(=O)[C@H](C)NC(=O)CSC[C@@H](C(=O)NCCOCCOCCOCCOCCC(N)=O)NC(=O)[C@H](Cc2ccc(O)cc2)N(C)C(=O)[C@H](Cc2cccc(C(=O)O)c2)NC(=O)[C@H](CCC(=O)NCCOCCOCCOCCOCCOCCOCCOCCOC)NC(=O)[C@H](CCCNC(=N)N)NC(=O)[C@H]([C@@H](C)CC)NC1=O` [compound 99] ({CH2CO}-AV[NMePhe(3-Cl)]VWN[3Pal(6-NH2)]Y(Carboxymethyl)IIRE(NH(CH2CH2O)8Me)[Phe(3-COOH)][NMeY]C[PEG4]-NH2; thioether N-15), 7.00 to 9.00.
